The target of the assay is T1, HGFR (Homo sapiens, UniProt P08581).
T1 construct: purchased Upstate 14-526
Put plainly: HGFR continuous-coupled spectrophotometric assay. Conditions: for inhibition at 1 µM: Table 6, percent c-MET inhibition at 1 μM, read-out: % inhibition; for I(%): test concentration not given. In kind it is biochemical.

Usually inhibition stands for the relative decrease from the control value, in per cent. The term Ki denotes a measure of affinity in units of concentration, obtained from inhibition or displacement.

T1 sequence (P08581 974-1390 limits assumed): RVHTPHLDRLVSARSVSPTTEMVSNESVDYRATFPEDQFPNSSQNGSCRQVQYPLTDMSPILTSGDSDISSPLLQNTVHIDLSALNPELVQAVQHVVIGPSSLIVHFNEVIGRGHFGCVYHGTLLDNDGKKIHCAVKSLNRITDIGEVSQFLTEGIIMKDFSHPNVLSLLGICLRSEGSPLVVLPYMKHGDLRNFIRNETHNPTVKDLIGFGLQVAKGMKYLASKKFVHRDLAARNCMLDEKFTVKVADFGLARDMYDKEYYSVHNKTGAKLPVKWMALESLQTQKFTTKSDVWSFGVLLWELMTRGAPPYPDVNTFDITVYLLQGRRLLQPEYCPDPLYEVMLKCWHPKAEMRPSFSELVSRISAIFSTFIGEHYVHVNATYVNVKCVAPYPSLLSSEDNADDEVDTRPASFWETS

In the case of `COc1cc(COc2cc(-c3ccc(C(=O)N4CCC(N5CCCC5)CC4)cc3)cnc2N)cc(OC)c1`, the “% inhibition” value is reported as “% inhibition = 17”. On to `Nc1ncc(-c2ccc(C(=O)N3CCC(N4CCCC4)CC3)cc2)cc1OCc1ccc(C(F)(F)F)nc1`, for which the “% inhibition” value was “% inhibition = 13”. Take `CCN(CC)C(=O)C1CCCN(C(=O)c2cnc(N)c(OCc3c(Cl)cccc3Cl)c2)C1` (stereo not shown): the inhibition at 1 µM turned out to be 33%. As for `Nc1ncc(-c2ccc(C(=O)N3CCC(N4CCCC4)CC3)cc2)cc1OCc1nsc(Cl)n1`, the “% inhibition” value is on record as “% inhibition = 5”.

In the case of `CC(C)Cc1noc(COc2cc(-c3ccc(C(=O)N4CCC(N5CCCC5)CC4)cc3)cnc2N)n1`, the “% inhibition” value is recorded as “% inhibition = 12”. For `Nc1ncc(-c2ccc(C(=O)N3CCC(N4CCCC4)CC3)cc2)cc1OCc1ccccc1` [Example I-649, [4-(6-Amino-5-benzyloxy-pyridin-3-yl)-phenyl]-(4-pyrrolidin-1-yl-piperidin-1-yl)-methanone], for the setting “Table 3, Ki(μM) or I(%)”, the “I(%)” value turned out to be 29%. Take `COc1ccc2sc(COc3cc(-c4ccc(C(=O)N5CCC(N6CCCC6)CC5)cc4)cnc3N)cc2c1`: the “% inhibition” value is recorded as “% inhibition = 13”.

For `Cc1ccc(F)c(CNC(=O)c2cnc(N)c(OCc3c(Cl)cccc3Cl)c2)c1F`, the inhibition at 1 µM was 31%. Still for that read-out and setting: next, `C[C@@H]1CN(C(=O)c2cnc(N)c(OCc3c(Cl)cccc3Cl)c2)C[C@H](C)O1`: 32%; `Nc1ncc(C(=O)NCCN2CCN(Cc3ccccc3)CC2)cc1OCc1c(Cl)cccc1Cl`: 36%; `CC(C)CCNC(=O)C1CC12CCN(C(=O)c1cnc(N)c(OCc3c(Cl)cccc3Cl)c1)CC2` (stereo not shown): 21%.

As to `CC(Oc1cc(-c2ccc(C(=O)N3CCC(N4CCCC4)CC3)cc2)cnc1N)c1ccccc1C(F)(F)F` (stereo not shown), the “% inhibition” value was “% inhibition = 21”. The same measure, in the same setting: under `Cn1nc(CC2CC2)nc1COc1cc(-c2ccc(C(=O)N3CCC(N4CCCC4)CC3)cc2)cnc1N` stands “% inhibition = 7”.

On to `CC(C)OCCNC(=O)c1cnc(N)c(OCc2c(Cl)cccc2Cl)c1`, for which the inhibition at 1 µM was 46%.

For the compound `Nc1ncc(C(=O)NCc2noc(C(=O)N3CC[C@H](O)C3)n2)cc1OCc1c(Cl)cccc1Cl`, the inhibition at 1 µM came out at 26%. As for `CN(C)C(CNC(=O)c1cnc(N)c(OCc2c(Cl)cccc2Cl)c1)c1cccnc1` (stereo not shown), the inhibition at 1 µM turned out to be 18%. On the same count and under the same terms, under `CN(CCC1CCC(=O)N1CC(F)(F)F)C(=O)c1cnc(N)c(OCc2c(Cl)cccc2Cl)c1` (stereo not shown) stands 25%. On the same count and under the same terms, under `Nc1ncc(C(=O)NC(CO)c2cccnc2)cc1OCc1c(Cl)cccc1Cl` (stereo not shown) stands 22%; under `Nc1ncc(C(=O)NCCCO)cc1OCc1c(Cl)cccc1Cl`, 26%; under `Nc1ncc(C(=O)N2CCC3(CC2)CC(CCc2ccnnc2)CO3)cc1OCc1c(Cl)cccc1Cl` (stereo not shown), 37%. For `CC(C)NC(=O)c1ccc(-c2noc(COc3cc(-c4ccc(C(=O)N5CCC(N6CCCC6)CC5)cc4)cnc3N)n2)cc1`, the “% inhibition” value was “% inhibition = 18”. As for `CC(O)CNC(=O)c1cnc(N)c(OCc2c(Cl)cccc2Cl)c1` (stereo not shown), the inhibition at 1 µM is 49%. With `Nc1ncc(-c2ccc(C(=O)N3CCC(N4CCCC4)CC3)cc2)cc1OCc1ccc2ccc(Cl)cc2n1`, the “% inhibition” value is “% inhibition = 24”. In the case of `CC(Oc1cc(-c2ccccc2F)cnc1N)c1c(Cl)ccc(F)c1Cl` (stereo not shown) [Example I-563, 3-[1-(2,6-Dichloro-3-fluoro-phenyl)-ethoxy]-5-(2-fluoro-phenyl)-pyridin-2-ylamine], for the setting “Table 3, Ki(μM) or I(%)”, the Ki came out at 0.433 µM. Regarding `CCN1CCCC1CNC(=O)c1ccc(COc2cc(-c3ccc(C(=O)N4CCC(N5CCCC5)CC4)cc3)cnc2N)cc1` (stereo not shown), the “% inhibition” value is “% inhibition = 18”. As to `CN1CCN(C(=O)c2cnc(N)c(OCc3c(Cl)cccc3Cl)c2)CC1`, the inhibition at 1 µM was determined as 32%. Regarding `Nc1ncc(-c2ccc(C(=O)N3CCC(N4CCCC4)CC3)cc2)cc1OCc1ccc(C(=O)NC2CCN(Cc3ccccc3)CC2)cc1`, the “% inhibition” value is “% inhibition = 11”. Consider `Nc1ncc(C(=O)NCc2ncccc2O)cc1OCc1c(Cl)cccc1Cl`, for which the inhibition at 1 µM worked out at 24%. With `Cc1onc(-c2ccccc2)c1COc1cc(-c2ccc(C(=O)N3CCC(N4CCCC4)CC3)cc2)cnc1N`, the “% inhibition” value is on record as “% inhibition = 19”. The same measure, in the same setting: next, `Nc1ncc(-c2ccc(C(=O)N3CCC(N4CCCC4)CC3)cc2)cc1OCc1noc(-c2ccccc2)n1`: “% inhibition = 16”.

Turning to `COC(=O)c1ccc(-c2cnc(N)c(OC(C)c3c(Cl)ccc(F)c3Cl)c2)c(C)c1` (stereo not shown) [Example I-548, 4-{6-Amino-5-[1-(2,6-dichloro-3-fluoro-phenyl)-ethoxy]-Pyndin-3-yl}-3-methyl-benzoic acid methyl ester], for the setting “Table 3, Ki(μM) or I(%)”, the “I(%)” value stood at 17%. With `Nc1ncc(-c2ccc(C(=O)N3CCC(N4CCCC4)CC3)cc2)cc1OCc1nnn[nH]1`, the “% inhibition” value was “% inhibition = 14”. Consider `Nc1ncc(-c2ccc(C(=O)N3CCC(N4CCCC4)CC3)cc2)cc1OCc1cccc(C(=O)Nc2ccc(N3CCCCC3)cc2)c1`, for which the “% inhibition” value was “% inhibition = 32”. As for `Nc1ncc(C(=O)N2CCC3(CC2)CC3C(=O)NCC2CC2)cc1OCc1c(Cl)cccc1Cl` (stereo not shown), the inhibition at 1 µM amounted to 32%.

`Cc1nc2scc(COc3cc(-c4ccc(C(=O)N5CCC(N6CCCC6)CC5)cc4)cnc3N)c2c(=O)[nH]1`: the “% inhibition” value is “% inhibition = 10”.

`Nc1ncc(C(=O)N2CCCC(O)C2)cc1OCc1c(Cl)cccc1Cl` (stereo not shown): the inhibition at 1 µM was 33%. Still for that read-out and setting: under `Nc1ncc(C(=O)NC2CCN(Cc3ccccc3)C2)cc1OCc1c(Cl)cccc1Cl` (stereo not shown) stands 27%; under `Nc1ncc(C(=O)NCC(O)c2ccc(O)cc2)cc1OCc1c(Cl)cccc1Cl` (stereo not shown), 29%. `Nc1ncc(-c2ccc(C(=O)N3CCC(N4CCCC4)CC3)cc2)cc1OCc1csc2ccc(Cl)cc12`: the “% inhibition” value is on record as “% inhibition = 37”. Take `CCC(CC)CN1CCC2(CC1)CC(NC(=O)c1cnc(N)c(OCc3c(Cl)cccc3Cl)c1)CO2` (stereo not shown): the inhibition at 1 µM worked out at 74%. In the case of `CCCOCCNC(=O)c1cnc(N)c(OCc2c(Cl)cccc2Cl)c1`, the inhibition at 1 µM was found to be 45%.

`Nc1ncc(C(=O)NCc2cn3cc(Cl)ccc3n2)cc1OCc1c(Cl)cccc1Cl`: the inhibition at 1 µM is 38%. `Nc1ncc(-c2ccc(C(=O)N3CCC(N4CCCC4)CC3)cc2)cc1OCc1ccc(C(=O)NCCCN2CCCC2=O)cc1`: the “% inhibition” value is “% inhibition = 11”. In the case of `CN(C)CC(C)(C)CNC(=O)c1cnc(N)c(OCc2c(Cl)cccc2Cl)c1`, the inhibition at 1 µM was determined as 38%.

For the compound `COc1cc(CCNC(=O)c2cnc(N)c(OCc3c(Cl)cccc3Cl)c2)ccc1O`, the inhibition at 1 µM was found to be 32%.

Consider `Nc1ncc(-c2ccc(C(=O)N3CCC(N4CCCC4)CC3)cc2)cc1COc1ccc2ccccc2c1`, for which the “% inhibition” value is “% inhibition = 27”.

On to `CCN1CCN(C(=O)c2ccc(-c3cnc(N)c(OCc4ccccc4)c3)cc2)CC1` [Example I-623, [4-(6-Amino-5-benzyloxy-pyridin-3-yl)-phenyl]-(4-ethyl-piperazin-1-yl)-methanone], for which, for the setting “Table 3, Ki(μM) or I(%)”, the “I(%)” value was 7%. With `Nc1ncc(C(=O)N2CCCCC2CCO)cc1OCc1c(Cl)cccc1Cl` (stereo not shown), the inhibition at 1 µM was determined as 33%. For `CC(Oc1cc(-c2ccccc2CO)cnc1N)c1c(Cl)ccc(F)c1Cl` (stereo not shown) [Example I-564, (2-{6-Amino-5-[1-(2,6-dichloro-3 fluoro-phenyl)-ethoxy]pyridin-3-yl}-phenyl)-methanol], the “I(%)” value (Table 3, Ki(μM) or I(%)) is 21%.

On to `Cc1cc(COc2cc(-c3ccc(C(=O)N4CCC(N5CCCC5)CC4)cc3)cnc2N)ccc1F`, for which the “% inhibition” value is given as “% inhibition = 27”. `CC(Oc1cc(-c2ccc(C(=O)N3CCC(N4CCCC4)CC3)cc2)cnc1N)c1ccc(C(=O)NCCCN2CCCC2=O)cc1` (stereo not shown) [Example I-632, 4-(1-{2-Amino-5-[4-(4-pyrrolidin-1-yl-piperidine-1-carbonyl)-phenyl)-pyridin-3-yloxy}-ethyl)-[3-(2-oxo-pyrrolidin-1-yl)-propyl]-benzamide]: the “I(%)” value (Table 3, Ki(μM) or I(%)) came to 0%. In the case of `Nc1ncc(C(=O)N2CCS(=O)(=O)CC2)cc1OCc1c(Cl)cccc1Cl`, the inhibition at 1 µM stood at 10%. `Nc1ncc(-c2ccc(C(=O)N3CCC(N4CCCC4)CC3)cc2)cc1OCc1cccc(F)c1F`: the “% inhibition” value is “% inhibition = 24”. As to `Nc1ncc(C(=O)NCCC2CCOCC2)cc1OCc1c(Cl)cccc1Cl`, the inhibition at 1 µM worked out at 31%. Same read-out and setting: under `COc1ccc(C(CCO)NC(=O)c2cnc(N)c(OCc3c(Cl)cccc3Cl)c2)cc1` (stereo not shown) stands 22%. On to `Nc1ncc(-c2ccc(C(=O)N3CCC(N4CCCC4)CC3)cc2)cc1OCc1nc2ccccc2[nH]1`, for which the “% inhibition” value is reported as “% inhibition = 4”. Turning to `CC(Oc1cc(-c2ccc(C(=O)N[C@H]3C[C@@H]3c3ccccc3)cc2)cnc1N)c1c(Cl)ccc(F)c1Cl` (stereo partly shown), under “Table 5, percent c-MET inhibition at 50 nM”, testing at 0.05 µM gave an inhibition of 65%. Take `Cc1oc(-c2cccc(F)c2)nc1COc1cc(-c2ccc(C(=O)N3CCC(N4CCCC4)CC3)cc2)cnc1N`: the “% inhibition” value is recorded as “% inhibition = 8”.

With `Nc1ncc(-c2ccc(C(=O)N3CCC(N4CCCC4)CC3)cc2)cc1OCc1cccc(Cl)c1F`, the “% inhibition” value is recorded as “% inhibition = 28”. Turning to `CC(Oc1cc(-c2ccc(C(=O)N3CCC(N4CCCC4)CC3)cc2)cnc1N)c1ccc(C(=O)NC2CCN(Cc3ccccc3)CC2)cc1` (stereo not shown) [Example I-631], for the setting “Table 3, Ki(μM) or I(%)”, the “I(%)” value is reported as 3%. As to `Cc1oc(-c2ccccc2)nc1COc1cc(-c2ccc(C(=O)N3CCC(N4CCCC4)CC3)cc2)cnc1N`, the “% inhibition” value is “% inhibition = 19”. Take `Nc1ncc(C(=O)N2CCN(CCO)CC2)cc1OCc1c(Cl)cccc1Cl`: the inhibition at 1 µM worked out at 51%.

`CN(C)c1ccc(CNC(=O)c2cnc(N)c(OCc3c(Cl)cccc3Cl)c2)cc1`: the inhibition at 1 µM stood at 30%. As to `CC(C)CNC(=O)c1ccc(Cl)c(CNC(=O)c2cnc(N)c(OCc3c(Cl)cccc3Cl)c2)c1`, the inhibition at 1 µM was found to be 47%. Turning to `Nc1ncc(-c2ccc(C(=O)N3CCC(N4CCCC4)CC3)cc2)cc1OCc1ccccc1CS(=O)(=O)c1ccccc1`, the “% inhibition” value was “% inhibition = 11”.

Take `Cc1cc(C)cc(COc2cc(-c3ccc(C(=O)N4CCC(N5CCCC5)CC4)cc3)cnc2N)c1`: the “% inhibition” value was “% inhibition = 14”.

Regarding `Cc1nc(CCNC(=O)c2cnc(N)c(OCc3c(Cl)cccc3Cl)c2)c[nH]1`, the inhibition at 1 µM is 23%.

These data come from patent US8106197B2, “Aminoheteroaryl compounds as protein kinase inhibitors” (Pfizer Inc., priority 2003, dated 2012).
